Experimental data from US20230053540A1, “TREATMENT OF LIVER INJURY” (Massachusetts Institute of Technology, priority 2019, published 2023).

Test system: hepatocytes
Test: Seq-Well scRNA-Seq of hepatocytes after APAP overdose (signature scores, DEG vs untreated)
Assay type: in vivo, mouse
Conditions: APAP vs UT, composite DEG

SMILES: CC(=O)Nc1ccc(O)cc1 [APAP, acetaminophen]
- Ndufs4 logFC: −0.3132
- Ndufs8 logFC: −0.3614
- Ndufv2 logFC: −0.3276
- Ndufv3 logFC: −0.3971
- Neat1 logFC: 0.6374
- Nedd4l logFC: 0.2812
- Nedd8 logFC: −0.3564
- Nfe2l1 logFC: 0.2703
- Nid1 logFC: 0.3426
- Nme1 logFC: −0.4329
- Nop10 logFC: −0.2919
- Nop58 logFC: 0.6634
- Nr0b2 logFC: −0.293
- Nr1d2 logFC: 0.4306
- Nr1i3 logFC: 0.4259
- Nr2f6 logFC: −0.3754
- Nrip1 logFC: 0.2729
- Oaf logFC: −0.7329
- Oat logFC: −1.225
- Orm1 logFC: 0.3651
- Osbpl1a logFC: 0.2728
- Osbpl9 logFC: 0.2788
- Ostc logFC: 0.2658
- Otc logFC: −0.299
- P4hb logFC: 0.4052
- Pabpc1 logFC: 0.4949
- Pacsin2 logFC: 0.3708
- Padi3 logFC: 0.2957
- Pak2 logFC: 0.2815
- Palld logFC: 0.3414
- Pank1 logFC: −0.3527
- Paqr9 logFC: −0.3323
- Pbld1 logFC: −0.4425
- Pcbd1 logFC: −0.6878
- Pcbp2 logFC: 0.3103
- Pck1 logFC: −0.6522
- Pdia3 logFC: 0.5938
- Pecr logFC: −0.3981
- Pex11a logFC: 0.3508
- Pgrmc1 logFC: 0.3502
- Phc2 logFC: 0.312
- Phf20l1 logFC: 0.3085
- Phlda1 logFC: 0.5492
- Pigr logFC: 0.3868
- Pipox logFC: 0.2725
- Pla2g7 logFC: 0.2823
- Plek logFC: 0.3089
- Plin2 logFC: 1.461
- Plin5 logFC: 0.3521
- Plk3 logFC: 0.4166
- Plscr1 logFC: 0.4445
- Pnkd logFC: −0.2928
- Pnpla7 logFC: −0.3016
- Pnpla8 logFC: 0.2956
- Pon1 logFC: −0.6858
- Por logFC: 0.336
- Ppara logFC: 0.3589
- Ppp1r12a logFC: 0.3563
- Prdx1 logFC: −0.5292
- Prdx4 logFC: −0.4176
- Prdx5 logFC: −0.2821
- Prkaa2 logFC: 0.2636
- Prodh2 logFC: 0.3453
- Prox1 logFC: 0.2663
- Proz logFC: 0.2632
- Prrc2c logFC: 0.4393
- Psat1 logFC: 0.3012
- Psen2 logFC: −0.9474
- Psmb1 logFC: −0.3585
- Psmb3 logFC: −0.3303
- Psmb6 logFC: −0.3194
- Psme1 logFC: −0.394
- Psme4 logFC: 0.2626
- Ptp4a1 logFC: 0.2627
- Ptpn2 logFC: 0.2734
- Ptprc logFC: 0.4165
- Ptprf logFC: 0.3071
- Purb logFC: 0.3525
- Pxk logFC: 0.2819
- Pxmp2 logFC: −0.3671
- Pzp logFC: 0.416
- Rarres1 logFC: −0.4556
- Rbm25 logFC: 0.4215
- Rcan1 logFC: 0.7073
- Rdh7 logFC: −0.4186
- Rdx logFC: 0.3736
- Reep3 logFC: 0.409
- Reep6 logFC: 0.5143
- Rell1 logFC: 0.5912
- Retnlg logFC: 0.3751
- Rexo2 logFC: −0.3263
- Rgn logFC: −1.573
- Rgs16 logFC: 0.3226
- Rlim logFC: 0.3102
- Rnase4 logFC: −1.049
- Rnaseh2c logFC: −0.3257
- Rnf13 logFC: 0.2553
- Rnf144a logFC: 0.313
- Romo1 logFC: −0.3359
- Rpl4 logFC: 0.2839
- Rpl13a logFC: −0.3815
- Rpl13 logFC: −0.2997
- Rpl14 logFC: −0.2776
- Rpl38 logFC: 0.2543
- Rplp0 logFC: −0.4309
- Rps3 logFC: −0.3493
- Rps8 logFC: −0.2746
- Rps9 logFC: −0.3718
- Rps10 logFC: −0.3369
- Rps15 logFC: −0.4552
- Rps18 logFC: −0.4885
- Rps21 logFC: −0.3645
- Rps27l logFC: −0.8659
- Rsp14 logFC: −0.4021
- Saa2 logFC: 0.9645
- Sardh logFC: 0.2692
- Sbno1 logFC: 0.3671
- Sc4mol logFC: −0.3262
- Scaf11 logFC: 0.3598
- Scd1 logFC: 0.7267
- Sco2 logFC: −0.2929
- Scp2 logFC: −0.5191
- Sdhb logFC: −0.2896
- Sdhc logFC: 0.3944
- Sdr9c7 logFC: −0.26
- Sdsl logFC: 0.2593
- Sec14l2 logFC: −0.7897
- Sec31a logFC: 0.263
- Sec61b logFC: −0.2903
- Sec62 logFC: 0.2516
- Sel1l logFC: 0.336
- Selk logFC: −0.3383
- Serpina1b logFC: −0.3018
- Serpina1c logFC: −0.4026
- Serpina3m logFC: 0.9674
- Serpina3n logFC: 0.8483
- Serpina10 logFC: 0.565
- Serpina12 logFC: −0.4534
- Serpinf1 logFC: 0.3196
- Serping1 logFC: 0.4128
- Sf1 logFC: 0.3023
- Sfpq logFC: 0.394
- Sgk1 logFC: 0.2843
- Sh3bgrl logFC: 0.2513
- Sh3glb1 logFC: 0.326
- Shb logFC: 0.3152
- Shmt1 logFC: −0.3932
- Sirt3 logFC: −0.346
- Slc4a4 logFC: 0.4203
- Slc7a2 logFC: 0.3526
- Slc10a1 logFC: −0.3258
- Slc16a6 logFC: 0.9114
- Slc22a1 logFC: −0.7979
- Slc22a30 logFC: −0.3746
- Slc25a10 logFC: 0.3433
- Slc25a13 logFC: 0.2855
- Slc25a20 logFC: 0.38
- Slc25a47 logFC: 0.5027
- Slc27a2 logFC: 0.3853
- Slc27a5 logFC: 0.337
- Slc38a10 logFC: 0.2855
- Slc39a14 logFC: 1.013
- Slc40a1 logFC: 0.467
- Slco1b2 logFC: −1.087
- Slirp logFC: −0.3085
- Smap2 logFC: 0.3489
- Smdt1 logFC: −0.3673
- Smg1 logFC: 0.335
- Snord13 logFC: 0.2611
- Snx10 logFC: 0.2856
- Sod1 logFC: −0.4393
- Sord logFC: −0.3836
- Spp2 logFC: −0.3821
- Sptbn1 logFC: 0.4227
- Srebf1 logFC: 0.2762
- Srgn logFC: 0.9341
- Srp72 logFC: 0.3107
- Srpr logFC: 0.3052
- Srsf11 logFC: 0.4012
- Ssr3 logFC: 0.5218
- St3gal5 logFC: 0.6076
- Stbd1 logFC: −0.2732
- Steap4 logFC: 0.476
- Stk17b logFC: 0.2911
- Stom logFC: 0.3232
- Stt3b logFC: 0.3194
- Suco logFC: 0.251
- Suds3 logFC: 0.2539
- Sult1d1 logFC: 0.4599
- Supt6 logFC: 0.2913
- Surf4 logFC: 0.2586
- Syncrip logFC: 0.2748
- Tars logFC: 0.4921
- Tbl1xr1 logFC: 0.3075
- Tcea3 logFC: −0.355
- Tceb2 logFC: −0.3207
- Tfpi2 logFC: −0.3663
- Tgm2 logFC: 0.3993
- Tgoln1 logFC: 0.3883
- Timm8b logFC: −0.3936
- Timm13 logFC: −0.433
- Tjp1 logFC: 0.2862
